Like-named read-outs stand apart in the source and are kept apart here. Bridge positions count the residues as written; N and C are the ends. Square brackets hold non-standard residues; d marks the D form. Peptide text beside a SMILES is read from it. * marks the point of attachment. Isonicotinoyl(2-Ph) = O=C(c1ccnc(-c2ccccc2)c1)*; X4 = N#Cc1cccc(-c2cc(C(=O)*)ccc2C#N)c1; X20 = Cc1ccc(-c2cccc(C(=O)*)c2)cc1; X23 = O=C(c1cnnc(-c2ccccc2)c1)*; X1 = CC[C@H](C)CCCCC(=O)*; Dab = NCC[C@H](N)C(=O)O; Dap = NC[C@H](N)C(=O)O
Columns and labels:
[1] = tested on: KP-3700, ESBL+ clinical isolate of Klebsiella pneumoniae; assay: Minimum inhibitory concentration (MIC, CLSI), KP-3700; format: cell-based; conditions: K. pneumoniae KP-3700; overnight incubation, lower of duplicate values; trifluoroacetate salt (Example 1 and PMB sulfate)
Procedure: (§1) Minimum bactericidal concentration (MBC, mg/L), minimum inhibitory concentration (MIC, mg/L), and human renal proximal tubule epithelial cell line cytotoxicity concentration 50% (hRPTEC, TC50, micromolar) for compounds of Formula I are listed in Table 2. The compounds of Formula I were tested as the corresponding trifluoroacetate salt except for Example 1 which was tested as the sulfate salt. For Table 2 below: PMB=polymyxin B as the sulfate salt (Bedford Laboratories, pharmaceutical grade); PMB1=polymyxin B1 as the trifluoroacetate salt; Nona=polymyxin B nonapeptide as the trifluoroacetate salt. PMB1 and Nona were prepared using the solid phase methodology described in the experimental section herein.
(§2) The in vitro antibacterial activity of compounds of Formula I was evaluated by MIC testing according to Clinical and Laboratory Standards Institute (CLSI). See: Clinical and Laboratory Standards Institute. Methods for Dilution Antimicrobial Susceptibility Tests for Bacteria that Grow Aerobically; Approved Standard-Eighth Edition. CLSI document M7-A8 [ISBN 1-56238-689-1]. Clinical and Laboratory Standards Institute, 940 West Valley Road, Suite 1400, Wayne, Pa. 19087-1898 USA, 2006; also Clinical and Laboratory Standards Institute. Performance Standards for Antimicrobial Susceptibility Testing; Twentieth Informational Supplement. CLSI document M100-S20 [ISBN 1-56238-716-2]. Clinical and Laboratory Standards Institute. Methods for Determining Bactericidal Activity of Antimicrobial Agents; Approved Guideline. CLSI document M26-A (ISBN 1-56238-384-1). CLSI, 940 West Valley Road, Suite 1400, Wayne, Pa. 19087-1898 USA, 1999.
(§3) The MIC determination is a standard laboratory method for evaluating the antibacterial activity of a compound. The MIC represents the lowest drug concentration that inhibits visible growth of bacteria following overnight incubation. […] Typically, the drug concentration range is broken down into 2-fold increments (e.g. 0.06 mg/L, 0.12 mg/L, 0.25 mg/L, 0.50 mg/L, 1.0 mg/L, etc.) and the various drug concentrations are all individually incubated overnight with approximately the same number of bacteria. The MIC is then determined by visually inspecting the drug effect at each concentration, and identifying the lowest drug concentration that has inhibited bacterial growth as compared to the drug free control. Typically, bacteria continue to grow at drug concentrations lower than the MIC and don't grow at concentrations at and above the MIC.
(§4) The MIC values described in Table 2 below were derived from assays wherein each test compound was evaluated in duplicate. In cases where the duplicate values varied by 0-2-fold, the lower of the two values was reported below. Generally speaking, if the duplicate values varied by more than 2-fold, the assay was considered non-valid and was repeated until the variation between duplicate runs was ≦2-fold. In line with the CLSI guidelines referred to above, both control organisms and reference compounds were utilized in each MIC assay to provide proper quality control. MIC values generated with these control organisms and reference compounds were required to fall within a defined range for the assay to be considered valid and be included herein. Those skilled in the art will recognize that MIC values can and do vary from experiment to experiment. Generally speaking, it should be recognized that MIC values often vary +/−2-fold from experiment to experiment. While a single MIC is reported for each compound and each microorganism, the reader should not conclude that each compound was only tested once. Several of the compounds were subjected to multiple tests. The data reported in Table 2 is reflective of the compounds relative activity and different MICs may have been generated on these occasions in line with the guidelines described above.
The following bacterial strains were used in these MIC determinations:
KP-3700 is an ESBL+clinical isolate of Klebsiella pneumoniae obtained in 2006; and […]

[2] = tested on: PA-1646, polymyxin-resistant clinical isolate of Pseudomonas aeruginosa; format: cell-based
Summary of the method: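 Broth dilution MIC and bactericidal (MBC) testing per CLSI methods (M7-A8, M100-S20, M26-A) against polymyxin-resistant clinical P. aeruginosa isolate PA-1646. Compounds tested as trifluoroacetate salts, one as sulfate salt; values in mg/L.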

[3] = tested on: AB-1649, polymyxin-resistant clinical isolate of Acinetobacter baumannii; format: cell-based
Summary of the method: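 MIC and MBC were measured by CLSI broth dilution methods (M7-A8, M100-S20, M26-A) against a polymyxin-resistant clinical isolate and reported in mg/L. Compounds were tested as trifluoroacetate salts, with one exception tested as the sulfate.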

[4] = tested on: AB-1649, polymyxin-resistant clinical isolate of Acinetobacter baumannii; format: cell-based; remark: listed apart in the source
Summary of the method: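 Broth dilution MIC per CLSI against the polymyxin-resistant A. baumannii isolate, 2-fold dilutions, overnight incubation, visual read of lowest concentration inhibiting growth. Run in duplicate, lower value reported when within 2-fold; MBC per CLSI M26-A guideline.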

[5] = tested on: PA-1646, polymyxin-resistant clinical isolate of Pseudomonas aeruginosa; format: cell-based; remark: listed apart in the source
Summary of the method: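 Broth dilution MIC per CLSI with 2-fold concentration steps, read visually after overnight incubation as lowest concentration inhibiting growth; duplicates within 2-fold, lower value reported, with QC strains and reference compounds. Compounds tested as trifluoroacetate salts, polymyxin B as sulfate.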

[6] = tested on: AB-3167, clinical isolate of Acinetobacter baumannii; format: cell-based
Summary of the method: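 Broth dilution MIC per CLSI (M7-A8, M100-S20, M26-A for bactericidal), 2-fold dilution series, overnight incubation, visual read of lowest concentration inhibiting growth versus drug-free control. Duplicates run; lower value reported if within 2-fold, otherwise repeated. Compounds tested as trifluoroacetate salts; QC strains and reference compounds required in range.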

[7] = tested on: Pseudomonas aeruginosa strain PA01; format: cell-based
Summary of the method: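 CLSI broth dilution against P. aeruginosa PA01 with two-fold concentration steps and overnight incubation; MIC is lowest concentration visibly inhibiting growth versus drug-free control, in mg/L. Compounds tested as trifluoroacetate salts, in duplicate, lower value reported if within 2-fold; control organisms and reference compounds included.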

[8] = tested on: EC-1, mouse virulent strain of Escherichia coli; format: cell-based; conditions: E. coli EC-1; overnight incubation, lower of duplicate values; trifluoroacetate salt (Example 1 and PMB sulfate)
Summary of the method: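 Compounds were tested mostly as trifluoroacetate salts. Duplicate CLSI broth-dilution MICs were read visually after overnight incubation over 2-fold dilutions, with the lower of duplicates within 2-fold taken. QC organisms and reference drugs were included in each run.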

[9] = Cytotoxicity assay (LDH release), hRPTEC; format: cell-based, human; conditions: human
Summary of the method: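 hRPTEC grown 72 h in REGM, then exposed to compounds at 100, 67, 44, 30, 20 and 13 micromolar for 24 h at 37° C, 5% CO2. LDH released into supernatant measured; TC50 (micromolar) derived. Compounds tested as trifluoroacetate salts unless otherwise noted.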

[10] = tested on: KP-5016, ESBL+ clinical isolate of Klebsiella pneumoniae (SHV-5); assay: Minimum inhibitory concentration (MIC, CLSI), KP-5016; format: cell-based; conditions: K. pneumoniae KP-5016; overnight incubation, lower of duplicate values; trifluoroacetate salt (Example 1 and PMB sulfate)
Procedure: as §1, §2, §3, §4
The following bacterial strains were used in these MIC determinations: […]

[11] = AB-1649, polymyxin-resistant clinical isolate of
[12] = PA-1646, polymyxin-resistant clinical isolate of

Row | SMILES | KP-3700 MIC [1] | PA-1646 MBC ([2]; P. aeruginosa PA-1646, tested as trifluoroacetate salt (Example 1 and PMB as sulfate salt)) | AB-1649 MBC ([3]; A. baumannii AB-1649, tested as trifluoroacetate salt (Example 1 and PMB as sulfate salt)) | AB-1649 MIC ([4]; A. baumannii AB-1649, overnight incubation, lower of duplicate values, trifluoroacetate salt (Example 1 and PMB sulfate)) | PA-1646 MIC ([5]; P. aeruginosa PA-1646, overnight incubation, lower of duplicate values, trifluoroacetate salt (Example 1 and PMB sulfate)) | AB-3167 MIC ([6]; A. baumannii AB-3167, overnight incubation, lower of duplicate values, trifluoroacetate salt (Example 1 and PMB sulfate)) | PA01 MIC ([7]; P. aeruginosa PA01, overnight incubation, lower of duplicate values, trifluoroacetate salt (Example 1 and PMB sulfate)) | EC-1 MIC [8] | CC50 at 24 h ([9]; hRPTEC, 24 hours treatment, LDH release, Toxic Concentration 50%, read-out: hRPTEC TC50) | KP-5016 MIC [10] | AB-1649 MIC [4, 11] | PA-1646 MIC [5, 12] | AB-3167 MIC ([6]; AB-3167, clinical isolate of) | PA01 MIC ([7]; strain) | CC50 at 24 h [9] | PA-1646 MBC [2, 12] | AB-1649 MBC [3, 11]
1 | CC[C@H](C)CCCCC(=O)N[C@@H](CCN)C(=O)N[C@H](C(=O)N[C@@H](CCN)C(=O)N[C@H]1CCNC(=O)[C@H]([C@@H](C)O)NC(=O)[C@H](CCN)NC(=O)[C@H](CCN)NC(=O)[C@H](CC(C)C)NC(=O)[C@@H](Cc2ccccc2)NC(=O)[C@H](CCN)NC1=O)[C@@H](C)O [PMB1, polymyxin B1, reference compound] (X1-[Dab]T[Dab][Dab][Dab][dF]L[Dab][Dab]T; lactam 4-C) | 0.5 µg/mL | 16 µg/mL | 4 µg/mL | 4 µg/mL | 4 µg/mL | 0.25 µg/mL | 0.5 µg/mL | 0.125 µg/mL | 28 µM | 16 µg/mL | – | – | – | – | – | – | –
2 | CC(C)C[C@@H]1NC(=O)[C@@H](Cc2ccccc2)NC(=O)[C@H](CCN)NC(=O)[C@@H](NC(=O)[C@H](CN)NC(=O)[C@H](CO)NC(=O)[C@H](CCN)NC(=O)c2ccnc(-c3ccccc3)c2)CCNC(=O)[C@H]([C@@H](C)O)NC(=O)[C@H](CCN)NC(=O)[C@H](CCN)NC1=O [Example 46] ({Isonicotinoyl(2-Ph)}-[Dab]S[Dap][Dab][Dab][dF]L[Dab][Dab]T; lactam 4-C) | 0.5 µg/mL | – | – | – | – | – | – | 0.25 µg/mL | – | 64 µg/mL | 4 µg/mL | 64 µg/mL | 1 µg/mL | 0.5 µg/mL | 98 µM | – | –
3 | CC(C)C[C@@H]1NC(=O)[C@@H](Cc2ccccc2)NC(=O)[C@H](CCN)NC(=O)[C@@H](NC(=O)[C@H](CN)NC(=O)[C@@H](NC(=O)[C@H](CCN)NC(=O)c2cnnc(-c3ccccc3)c2)[C@@H](C)O)CCNC(=O)[C@H]([C@@H](C)O)NC(=O)[C@H](CCN)NC(=O)[C@H](CCN)NC1=O [Example 11] (X23-[Dab]T[Dap][Dab][Dab][dF]L[Dab][Dab]T; lactam 4-C) | – | – | – | – | – | – | – | 0.125 µg/mL | – | – | 2 µg/mL | 2 µg/mL | 0.25 µg/mL | 0.25 µg/mL | 84 µM | 8 µg/mL | 4 µg/mL
4 | CC(C)C[C@@H]1NC(=O)[C@@H](Cc2ccccc2)NC(=O)[C@H](CCN)NC(=O)[C@@H](NC(=O)[C@H](CN)NC(=O)[C@@H](NC(=O)[C@H](CCN)NC(=O)c2ccc(C#N)c(-c3cccc(C#N)c3)c2)[C@@H](C)O)CCNC(=O)[C@H]([C@@H](C)O)NC(=O)[C@H](CCN)NC(=O)[C@H](CCN)NC1=O [Example 14] (X4-[Dab]T[Dap][Dab][Dab][dF]L[Dab][Dab]T; lactam 4-C) | – | – | – | – | – | – | – | 0.5 µg/mL | – | – | 2 µg/mL | 4 µg/mL | 0.5 µg/mL | 0.5 µg/mL | 43 µM | 16 µg/mL | 2 µg/mL
5 | Cc1ccc(-c2cccc(C(=O)N[C@@H](CCN)C(=O)N[C@H](C(=O)N[C@@H](CN)C(=O)N[C@H]3CCNC(=O)[C@H]([C@@H](C)O)NC(=O)[C@H](CCN)NC(=O)[C@H](CCN)NC(=O)[C@H](CC(C)C)NC(=O)[C@@H](Cc4ccccc4)NC(=O)[C@H](CCN)NC3=O)[C@@H](C)O)c2)cc1 [Example 37] (X20-[Dab]T[Dap][Dab][Dab][dF]L[Dab][Dab]T; lactam 4-C) | – | – | – | – | – | – | – | 0.5 µg/mL | – | – | 4 µg/mL | 2 µg/mL | 1 µg/mL | 2 µg/mL | 18 µM | 4 µg/mL | 4 µg/mL

— patent US20120316105A1, “Polymyxin Derivates Useful As Antibacterial Agents” (priority 2011, published 2012)
